Reference: patent US20230276803A1, “A PESTICIDALLY ACTIVE MIXTURE COMPRISING THIETANYLOXY COMPOUND, OXIDES OR SALTS THEREOF” (PI INDUSTRIES LTD., priority 2020, published 2023)
Read-outs that look alike come from different tables or passages of the source.

How the values were obtained:
Format in all cases: in vivo
Helicoverpa armigera = experiment: Diet incorporation method against Helicoverpa armigera (Example A); settings: 96 h
Description: (§1) In which E represents the expected percentage of inhibition of the pests for the combination of two insecticides or one insecticide and one fungicide at defined doses (for example equal to x and y respectively), x is the percentage of inhibition observed for the pest/disease by the compound (1) at a given dose (equal to x), y is the percentage of inhibition observed for the pest/disease by the compound (2) or (3) at a defined dose (equal to y). When the percentage of inhibition observed for the combination is greater than E, there is a synergistic effect.
The diet incorporation method was used, in which semi-synthetic diet was incorporated into the test solutions consisting either of the single compounds or respective compound combinations, when the temperature was approximately 50° C. in the bio-assay containers, then stirred thoroughly for proper mixing and allowed to cool for 30 min. The solidified diet was cut into equal pieces, and then each piece was transferred into one cell of a bio-assay tray. A single starved third instar larva was released into each of these cells of the bio-assay trays and the tray was covered with a lid. The bio-assay trays were kept under laboratory conditions at a temperature of 25° C. and relative humidity of 70%. Observations on dead, moribund and live larvae were recorded 96 h after the release of the larvae. Percent mortality was calculated by combining dead and moribund larvae and comparing the result to the one of the untreated control. The results are shown for the compound of formula (I-1) in Table A.

Spodoptera litura = experiment: Diet incorporation method against Spodoptera litura (Example B); settings: 96 h; for pest or weed control at 10 ppm: read-out: Observed Efficacy (%), 10 ppm
Description: as §1
The diet incorporation method was used, in which semi-synthetic diet was incorporated into the test solution consisting either of the single compound or respective compound combinations, when the temperature was approximately 50° C. in the bioassay containers, then stirred thoroughly for proper mixing and allowed to cool for 30 min. The solidified diet was cut into equal pieces, and then each piece was transferred into one cell of the bio-assay trays. A single starved third instar larva was released into each of these cells of the bio-assay trays and the tray was covered with a lid. The bio-assay trays were kept under laboratory conditions at a temperature of 25° C. and relative humidity of 70%. Observations on dead, moribund and live larvae were recorded 96 h after the release. Percent mortality was calculated by combining dead and moribund larvae and comparing the result with the one of the untreated control. The results are shown for the compound of formula (I-1) in Table B.

Plutella xylostella = experiment: Leaf dip method (cabbage) against Plutella xylostella (Example C); settings: 72 h
Description: as §1
The leaf dip method was used, wherein the required quantity of the compound or respective compound combinations were weighed and dissolved in a test solution prepared in tubes. The tubes were put on a vortex at 2000 rpm for 90 min for proper mixing and then diluted with a 0.01% Triton-X solution to the desired test concentration. Cabbage leaves were dipped into the solution for 10 seconds, shade dried for 20 min and then transferred to single cells of bioassay trays. A single second instar larva was released into each cell and the tray was covered with a lid. The bio-assay trays were kept under laboratory conditions at a temperature of 25° C. and relative humidity of 70%. Observations on dead, moribund and live larvae were recorded 72 h after the release. Percent mortality was calculated by combining dead and moribund larvae and comparing the result with the one of the untreated control. The results are shown for compound of formula (I-1) in Table C.

Alternaria solani = experiment: Preventive glasshouse test against Alternaria solani in tomato (Example G); settings: 100 ppm, preventive spray
Description: as §1
(§2) The single compounds or respective compound combinations were dissolved in 2% dimethyl sulfoxide/acetone and then mixed with water containing emulsifier to a calibrated spray volume of 50 mL. The test solutions were poured into spray bottles for further applications.
(§3) To test the preventive activity, healthy young tomato plants, raised in the greenhouse, were sprayed with the active compound preparation at the stated application rates inside the spray cabinets using hollow cone nozzles. One day after treatment, the plants were inoculated with a spore suspension containing 0.24×10^6 Alternaria solani inoculum and 2% Malt. The inoculated plants were then kept in a greenhouse chamber at a temperature of 22-24° C. and 90-95% relative humidity for disease expression.
(§4) A visual assessment of the performance of the single compounds or compound combinations was carried out by rating the disease severity (0-100% scale) on treated plants 3, 7, 10 and 15 days after application. Efficacy (% control) of the single compounds and mixtures was calculated by comparing the disease rating in the treatment with the one of the untreated control. The compounds were also assessed for their plant compatibility by recording symptoms like necrosis, chlorosis and stunting. The results have been described for the compound of formula (I-1) in Table G.

Erysiphe cichoracearum = experiment: Preventive glasshouse test against Erysiphe cichoracearum in cucumber (Example K); settings: 50 ppm, preventive spray
Description: as §1
The single compounds or the respective compound combinations were dissolved in 2% dimethyl sulfoxide/acetone and then mixed with water containing emulsifier to a calibrated spray volume of 50 mL. The test solutions were poured into spray bottles for further applications. […]
A visual assessment of the performance of the compounds and the respective compound combinations was carried out by rating the disease severity (0-100% scale) on treated plants 3, 7, 10 and 15 days after application. Efficacy (% control) of the single compounds or compound combinations was calculated by comparing the disease rating in the treatment with the one of the untreated control. The compounds were also assessed for their plant compatibility by recording symptoms like necrosis, chlorosis and stunting. […]

Phakopsora pachyrhizi = experiment: Preventive glasshouse test against Phakopsora pachyrhizi in soybean (Example H); settings: preventive spray
Description: as §1
The single compounds or the respective compound combinations were dissolved in 2% dimethyl sulfoxide/acetone and then mixed with water containing an emulsifier to a calibrated spray volume of 50 ml. The test solutions were poured into spray bottles for further applications.
as §3, with “activity of compounds,” for “activity,”, “Soybean” for “tomato”, “a” for “a spore”, “2×10^5 Phakopsora pachyrhizi conidia.” for “0.24×10^6 Alternaria solani inoculum and 2% Malt.”, “80-90%” for “90-95%”
A visual assessment of the performance of the single compounds and respective compound combinations was carried out by rating the disease severity (0-100% scale) on treated plants 3, 7, 10 and 15 days after application. Efficacy (% control) of the compounds was calculated by comparing the disease rating in the treatment with the one of the untreated control. The compounds were also assessed for their plant compatibility by recording symptoms like necrosis, chlorosis and stunting. The results have been described for the compound of formula (I-1) in Table H.

[1] = tested on: Parastagonospora nodorum/Septoria nodorum/Stagnospora nodorum; experiment: Preventive glasshouse test against Septoria nodorum in wheat (Example J); settings: preventive spray
Description: as §1, §2
[…] One day after treatment, the plants were inoculated with a spore suspension containing 2.8×10^6 Stagnospora nodorum inoculum.
The inoculated plants were then kept in a greenhouse chamber at 22-25° C. temperature and 90-100% relative humidity for disease expression.
as §4, with “J.” for “G.”

[2] = Plutella xylostella, foliar, read-out: Observed Efficacy (%)
[3] = Helicoverpa armigera, read-out: Observed Efficacy (%)

spinetoram
Observed Efficacy (%) (Helicoverpa armigera; 2.5 ppm): 87.5%

CN/C(=N\[N+](=O)[O-])NCc1cnc(Cl)s1 [Clothianidin, clothianidin]
pest or weed control at 10 ppm (Spodoptera litura): 0% | pest or weed control at 0.1 ppm (Plutella xylostella; [2]): 0%

Cc1c(COC(=O)[C@@H]2[C@H](/C=C(\Cl)C(F)(F)F)C2(C)C)cccc1-c1ccccc1 (racemic) [Bifenthrin, bifenthrin]
pest or weed control at 20 ppm (Helicoverpa armigera; Helicoverpa armigera, 20 ppm, read-out: Observed Efficacy (%)): 75% | pest or weed control at 10 ppm (Spodoptera litura): 12.5% | pest or weed control at 1 ppm (Plutella xylostella; [2]): 25%

COC(=O)N(OC)c1ccccc1COc1ccn(-c2ccc(Cl)cc2)n1 [Pyraclostrobin, pyraclostrobin]
pest or weed control at 200 ppm (Helicoverpa armigera; [3]): 0% | pest or weed control at 500 ppm (Helicoverpa armigera; Helicoverpa armigera, 500 ppm, read-out: Observed Efficacy (%)): 0% | pest or weed control at 200 ppm (Spodoptera litura; read-out: Observed Efficacy (%), 200 ppm): 0% | pest or weed control at 500 ppm (Spodoptera litura; read-out: Observed Efficacy (%), 500 ppm): 0%

CCOCn1c(-c2ccc(Cl)cc2)c(C#N)c(Br)c1C(F)(F)F [Chlorfenapyr, chlorfenapyr]
pest or weed control at 0.15 ppm (Plutella xylostella; Plutella xylostella, foliar, 0.15 ppm, read-out: Observed Efficacy (%)): 62.5% | pest or weed control at 0.2 ppm (Plutella xylostella; Plutella xylostella, foliar, 0.2 ppm, read-out: Observed Efficacy (%)): 75%

COCC(=O)N(c1c(C)cccc1C)C(C)C(=O)OC (stereo not shown) [Metalaxyl, metalaxyl]
pest or weed control at 100 ppm (Spodoptera litura; read-out: Observed Efficacy (%), 100 ppm): 0% | Observed Efficacy (%) (Alternaria solani): 17%

CCS(=O)(=O)c1cccnc1-c1nc2cc(S(=O)(=O)C(F)(F)F)ccc2o1 [Oxazosulfyl, 2-[3-(ethanesulfonyl)pyridin-2-yl]-5-[trifluoro(methanesulfonyl)]-1,3-benzoxazole]
pest or weed control at 100 ppm (Spodoptera litura; 100 ppm, read-out: Observed Efficacy (%)): 0% | pest or weed control at 0.1 ppm (Plutella xylostella; [2]): 0%

CON=CNC(=O)c1ccc(C2=NOC(c3cc(Cl)cc(Cl)c3)(C(F)(F)F)C2)cc1C (stereo not shown) [Fluxametamide, fluxametamide]
Observed Efficacy (%) (Helicoverpa armigera; 0.13 ppm): 12.5% | Observed Efficacy (%) (Helicoverpa armigera; 0.28 ppm): 12.5%

N#Cc1c[nH]cc1-c1cccc2c1OC(F)(F)O2 [Fludioxonil, fludioxonil]
pest or weed control at 100 ppm (Helicoverpa armigera; Helicoverpa armigera, 100 ppm, read-out: Observed Efficacy (%)): 0%

COC(=O)NC(=S)Nc1ccccc1NC(=S)NC(=O)OC [Thiophanate-methyl, thiophanate-methyl]
Observed Efficacy (%) (Erysiphe cichoracearum): 29%

Cn1cc(C(=O)Nc2ccccc2-c2cc(F)c(F)c(F)c2)c(C(F)F)n1 [Fluxapyroxad, fluxapyroxad]
Observed Efficacy (%) (Phakopsora pachyrhizi; 0.05 ppm): 41%

N#Cc1nn(-c2c(Cl)cc(C(F)(F)F)cc2Cl)c(N)c1[S+]([O-])C(F)(F)F (stereo not shown) [Fipronil, fipronil]
pest or weed control at 0.005 ppm (Plutella xylostella; Plutella xylostella, foliar, 0.005 ppm, read-out: Observed Efficacy (%)): 50%

CCc1nc2cc(C)c(Oc3ccc(OC(F)(F)F)cc3)cc2c(OC(=O)OC)c1C [Flometoquin, flometoquin]
Observed Efficacy (%) (Plutella xylostella; 0.001 ppm): 0% | Observed Efficacy (%) (Plutella xylostella; 0.005 ppm): 62.5%

CC(COc1ccc(Oc2ccccc2)cc1)Oc1ccccn1 (stereo not shown) [Pyriproxyfen]
pest or weed control at 0.05 ppm (Plutella xylostella; [2]): 12.5%

O=[N+]([O-])NC1=NCCN1Cc1ccc(Cl)nc1 [Imidacloprid, imidacloprid]
pest or weed control at 50 ppm (Spodoptera litura; read-out: Observed Efficacy (%), 50 ppm): 25% | pest or weed control at 0.1 ppm (Plutella xylostella; [2]): 0%

C=CCOC1=NS(=O)(=O)c2ccccc21 [Probenazole, probenazole]
pest or weed control at 200 ppm (Helicoverpa armigera; [3]): 12.5%

CN1COCN(Cc2cnc(Cl)s2)/C1=N\[N+](=O)[O-] [Thiamethoxam, thiamethoxam]
pest or weed control at 1 ppm (Plutella xylostella; [2]): 12.5%

FC(F)(F)c1ccc(OCCCOc2c(Cl)cc(OCC=C(Cl)Cl)cc2Cl)nc1 [Pyridalyl, pyridalyl]
pest or weed control at 0.002 ppm (Plutella xylostella; Plutella xylostella, foliar, 0.002 ppm, read-out: Observed Efficacy (%)): 50%

CO/C=C(/C(=O)OC)c1ccccc1Oc1cc(Oc2ccccc2C#N)ncn1 [Azoxystrobin, azoxystrobin]
Observed Efficacy (%) (Phakopsora pachyrhizi; 0.1 ppm): 39% | Observed Efficacy (%) ([1]; 0.05 ppm): 12% | Observed Efficacy (%) ([1]; 0.1 ppm): 24%

N#Cc1ccc(CC(=NNC(=O)Nc2ccc(OC(F)(F)F)cc2)c2cccc(C(F)(F)F)c2)cc1 (mixture of isomers) [Metaflumizone, metaflumizone]
Observed Efficacy (%) (Plutella xylostella; 0.001 ppm): 12.5%

CC1=NNC(=O)N(/N=C/c2cccnc2)C1 [Pymetrozine, pymetrozine]
pest or weed control at 0.01 ppm (Plutella xylostella; Plutella xylostella, foliar, 0.01 ppm, read-out: Observed Efficacy (%)): 0% | pest or weed control at 0.05 ppm (Plutella xylostella; [2]): 0%

CCN(C(=O)CCSCCC(F)(F)F)c1cn(-c2cccnc2)nc1Cl [Tyclopyrazoflor]
Observed Efficacy (%) (Helicoverpa armigera; 100 ppm): 12.5%
